Laboratory results from patent US20260158070A1, “COMPOSITIONS AND METHODS FOR THE TREATMENT AND DIAGNOSIS OF CANCERS ASSOCIATED WITH SURFACE K-RAS” (UNIVERSITY OF MARYLAND, BALTIMORE, priority 2023, published 2026).

Legend:
PANC-1 cells [1] = assay: Surface K-Ras availability after drug treatment (antibody 1 staining, MFI fold change); type: cell-based, human
Procedure: For 5-FU treatment, 100,000 PANC-1 cells were seeded into 24 well replicate plates. Cells were allowed to grow for 24 hours before 10 uM of 5-FU was added to the culture media. At 0-, 72-, and 120-hours cells were dislodged by using TryPLE express and resuspended in buffer containing PBS pH 7.2, 5% FCS. Cells were stained with human K-Ras antibody 1. All staining was performed at 10 μg/ml of antibody concentration and a volume of 100ul for 30 minutes on ice in V-bottom 96 well plates. Surface K-Ras staining was quantitated by measuring the MFI of cells mock treated or treated with 5-FU. The fold change was calculated by normalizing to the cells stained with isotype control.

[2] = tested on: Panc-1 (K-Ras G12D mutant); assay: Growth and viability of pancreatic cancer cells cultured with R11.1.6 constructs (cell count, Trypan blue); type: cell-based, human; settings: Panc-1, 20,000 cells/well, counted after 5 days of culture
Procedure: We next evaluated growth as well as viability of two pancreatic cancer cell lines driven by either G12D (Panc-1) or G12C (MiaPaca-2) mutant K-Ras in vitro. We plated 20,000 cells/well in Dulbecco's modified Eagles media (DMEM) with 10% fetal bovine serum (FBS) in a flat bottom 96 well plate and counted cells after 5 days of culture. Viability of cells were calculated based on Trypan blue dye exclusion method, where dead cells were blue due to uptake of the viability dye and live cells were not stained. Viability was measured by using Countess II FL cell viability and cell counter instrument by Invitrogen (ThermoFisher USA).
Further evaluation of growth inhibition was performed with control Sulfolobus solfataricus-derived proteins of similar molecular weight. […] We started with 200,000 cells in a 96 well V-bottom plate and used BD phosflow buffer set III (BD biosciences, catalog number 558050) to stabilize and optimize the phosphor moiety. Next, we stained the cells with anti-phospho-Akt (ser473, Clone D9E) PE conjugated (Cell Signaling Technologies, Catalog number 5315S) at a concentration of 0.125 ug/100 ul or anti-phosho-ERK1/2, PE conjugated (ThermoFisher USA catalog number 12-9109-42) at a concentration of 0.125 ug/100 ul. Cells were washed in FACS staining buffer and run in a LSR Fortessa II flow cytometer (BD Biosciences, USA). […]

PANC-1 cells [3] = assay: Human Fab-ZAP assay with MRTX1133 treatment (XTT); type: cell-based; settings: 10 nM MRTX1133, 4.5 nM FabZAP, 5 days
Description: In this example, we used the commercially available human Fab-ZAP assay (Advanced Targeting Systems Inc.), similar to Example 3, to test whether increasing surface K-Ras availability with MRTX1133 would potentiate killing with surface K-Ras targeted ADCs. For the experiments described below, we utilized the Fab-ZAP human kit [IT-51, KIT-51](atsbio.com/products/it51/), consisting of a chemical conjugate of goat […] monovalent antibody and the ribosome-inactivating protein, saporin. The antibodies used in this kit are affinity-purified polyclonal antibodies against both the heavy and light chain of […].
In one experiment, we tested whether increasing surface K-Ras availability with the small molecule inhibitor MRTX1133 would potentiate killing with surface K-Ras targeted ADCs. […] After 5 days incubation at 37 C in a 5% CO2 incubator, the percentage of viable cells compared to control wells with 4.5 nM FabZAP alone was determined using XTT assay according to the described protocol (Advanced Targeting Systems Inc cytotoxic assay protocol). […] Plates were then incubated at 37 C for at least 30 mins, and absorbance was read at 450 nm in a plate reader. This assay relies on detecting the number of viable cells remaining on the day of development as measured via cell metabolism of a colorimetric molecule within the developing reagents. […]

[4] = tested on: human tumor cell line PANC-1; assay: Cell line-derived xenograft model of pancreatic cancer, in vivo ADC experiment; design: species or system Balb/c nude mice; settings: 10 mg/kg i.v. QW × 2 weeks; gemcitabine 50 mg/kg i.p. BIW × 2 weeks
Procedure: DXd is a protease cleavable linker attached to a derivative of exatecan that acts as topoisomerase I inhibitor. DXd targeted to cancer cells by antibodies as an ADC has been used by FDA-approved […] is a conjugation of anti-Her-2 antibody and deruxtecan. DXd was conjugated via stochastic maleimide conjugation to interchain cysteines of the antibodies. The antibodies were first reduced using 10× molar equivalents of 10 mM TCEP at 37° C. for 90 minutes with shaking. The reduced antibodies were then conjugated with 10× molar equivalents of 10 mM DXd at room temperature for 2 hours. Conjugated antibodies were evaluated for the drug to antibody ratio (DAR) by reducing 10 μg of the crude conjugate with DTT at 37° C. for 30 minutes. The final DAR for the conjugated antibodies was 8. The multimeric state of the conjugated antibodies was evaluated by size exclusion chromatography and confirmed to be monomeric. Conjugated antibodies were purified from unconjugated DXd by dialysis against PBS, pH 5.6 with a 10K molecular-weight cut-off (MWCO) membrane for 48 hours. Next, we utilized a cell line-derived xenograft model of pancreatic cancer, where the human tumor cell line PANC-1 was implanted into Balb/c nude mice. The nude mouse is a naturally mutated mouse that lacks a thymus and hair (nude). […]

[5] = tested on: Panc-1 (pancreatic carcinoma carrying a K-RAS G12D mutation); assay: Fab-ZAP assay (saporin-linked secondary antibody, XTT); type: cell-based, human; settings: 4.5 nM FabZAP, 5 days
Description: (§1) Saporin is a 30 kDa ribosome-inhibitor which is unable to cross a cell membrane unaided (except at extremely high concentrations). However, when it is conjugated to an internalizing antibody, as previously described (DOI: 10.3390/toxins14030184), it can be used to kill target cells precisely and specifically with little to no off-target toxicity (See, for example, Lund et. al., mAbs, 6(4), 1038-1050, doi.org/10.4161/mabs.28207). […]
(§2) We specifically utilized Panc-1 (pancreatic carcinoma carrying a K-RAS G12D mutation), Capan-2 (pancreatic carcinoma carrying a K-RAS G12V mutation), AsPC-1 (pancreatic cell line carrying a K-RAS G12D mutation), LS180 (colon cancer cell line carrying a K-RAS G12D mutation), SW480 (colon cancer cell lines carrying a K-RAS G12V mutation), Capan-2 (pancreatic cancer cell line carrying a K-RAS G12V mutation), and two lung cancer cell lines (SK-LU-1 carrying a K-RAS G12D mutation and NCI-H2444 carrying a K-RAS G12V mutation). […] After 5 days incubation at 37 C in a 5% CO2 incubator, the percentage of viable cells compared to control wells with 4.5 nM FabZAP alone was determined using XTT assay according to the described protocol (Advanced Targeting Systems Inc cytotoxic assay protocol). […] Plates were then incubated at 37° C. for a minimum of 30 mins and absorbance was read at 450 nm in a plate reader. […]

[6] = tested on: AsPC-1 (pancreatic cell line carrying a K-RAS G12D mutation); assay: as above; type: cell-based; settings: 4.5 nM FabZAP, 5 days
Description: as §1, §2

[7] = tested on: MiaPaCa-2, a K-Ras G12C expressing pancreatic cancer cell line; assay: as above; type: cell-based; settings: 4.5 nM FabZAP, 5 days
BXPC3 K-Ras^WT = assay: as above; type: cell-based; settings: 4.5 nM FabZAP, 5 days
tumor cell = assay: Tumor cell killing by saporin alone without targeting antibodies (FIG. 3); type: cell-based
Procedure: FIG. 3 is a graphical representation of tumor cell killing, defined as % of cells alive compared to untreated control cultures with various concentrations of saporin alone without targeting antibodies. Representative of 3 replicates per group. Arrow points to 4.5 nM saporin. This 4.5 nM concentration, conjugated to the secondary antibody, is utilized in the antibody-drug conjugate (ADC) assays described in Example 3.
as §2

## O=c1[nH]cc(F)c(=O)[nH]1 [5-FU, fluorouracil]
PANC-1 cells [1]; 10 uM, 0, 72 and 120 hours
  availability of surface K-Ras (MFI fold change): increased the availability of surface K-Ras in Panc-1 cells

## C#Cc1c(F)ccc2cc(O)cc(-c3ncc4c(N5CC6CCC(C5)N6)nc(OC[C@@]56CCCN5C[C@H](F)C6)nc4c3F)c12 [MRTX1133]
[2]
  growth and viability: R11.1.6-mediated inhibition of Panc-1 growth and viability was like the G12D inhibitor MRTX1133
PANC-1 cells [1]; 10 nM, 0, 72 and 120 hours
  availability of surface K-Ras (MFI fold change): increased the availability of surface K-Ras on PANC-1 cells
PANC-1 cells [3]
  cell killing (% alive): able to kill cells

## Nc1ccn([C@@H]2O[C@H](CO)[C@@H](O)C2(F)F)c(=O)n1 [gemcitabine, Gemcitabine]
[4]
  body weight: demonstrated distress based on weight loss
  tumor growth (tumor volume): slowed tumor growth over either ADC or antibody treatment

## Saporin
[5]
  cell-specific killing (% of cells alive): showed killing
[6]
  cell-specific killing (% of cells alive): showed killing
[7]
  cell-specific killing (% of cells alive): showed killing
BXPC3 K-Ras^WT
  cell-specific killing (% of cells alive): showed killing
Tumor cell; 4.5 nM concentration used in the ADC assay
  toxicity of saporin without a targeting agent: no toxicity is evident at the 4.5 nM concentration
Tumor cell; without targeting antibodies
  concentration of saporin alone causing cell death: ≥ 100 nM
